Measured values taken from paper PMC6792352, “Limited Chemical Structural Diversity Found to Modulate Thyroid Hormone Receptor in the Tox21 Chemical Library” (Environmental Health Perspectives, 2019).
Counter-ions that a name gives are not always drawn.

Test: in vitro
Settings: rat, gh3-tre-luc cells, AC50 (uM) modified / 1000
In the case of `Cc1ncc(CO)c(CO)c1O` [Pyridoxine], the CC50 at 24 h is reported as > 50 µM. In the case of `C=CCN(CC=C)C(=O)C(Cl)Cl` [Dichlormid], the CC50 at 24 h is reported as > 90 µM. For `CCOc1ccc2nc(N)sc2c1` [2-Amino-6-ethoxybenzothiazole], the CC50 at 24 h was > 90 µM. For `COC(=O)CC(C)CCC=C(C)C` (stereo not shown) [Methyl citronellate], the CC50 at 24 h was > 90 µM. With `CCCCCCCCCCCCCCCCCCOCC(O)CO` (stereo not shown) [3-(Octadecyloxy)-1,2-propanediol] the CC50 at 24 h was > 50 µM. For `CN1C(C(=O)Nc2ccccn2)=C(O)c2sccc2S1(=O)=O` [Tenoxicam], the CC50 at 24 h was > 20 µM. For `C=CC1CO1` (stereo not shown) [1,2-Epoxy-3-butene], the CC50 at 24 h was > 100 µM. With `CCOc1ccccc1O` [2-Ethoxyphenol] the CC50 at 24 h was > 90 µM. With `C[C@H](CCC(=O)O)[C@H]1CC[C@H]2[C@@H]3[C@H](O)C[C@@H]4C[C@H](O)CC[C@]4(C)[C@H]3C[C@H](O)[C@]12C` [Cholic acid piperazine (1:1)] the CC50 at 24 h was > 50 µM. With `C=CC(=O)NC(C)(C)C` [tert-Butylacrylamide] the CC50 at 24 h was > 90 µM. In the case of `FC(F)(F)C(F)(F)C(F)(F)C(F)(F)C(F)(F)F` [Perflenapent], the CC50 at 24 h is reported as > 50 µM. For `NCC(O)c1ccc(O)cc1` (stereo not shown) [Octopamine hydrochloride], the CC50 at 24 h was > 90 µM. With `N#C[C@@H]1CC(F)(F)CN1C(=O)CNC1CC2CCC(C1)N2c1ncccn1` (stereo partly shown) [SSR162369] the CC50 at 24 h was > 90 µM. For `CC[C@H](CC[C@@H](C)[C@H]1CC[C@H]2[C@@H]3CC=C4C[C@@H](O)CC[C@]4(C)[C@H]3CC[C@]12C)C(C)C` [beta-Sitosterol], the CC50 at 24 h was > 50 µM. With `CC(C)=CCC/C(C)=C/CO` [Geraniol] the CC50 at 24 h was > 90 µM. In the case of `NC(=O)c1cccnc1` [Niacinamide], the CC50 at 24 h is reported as > 90 µM. For `O=C(c1ccc(F)cc1)C1CCN(CCn2c(=S)[nH]c3ccccc3c2=O)CC1` [Altanserin hydrochloride], the CC50 at 24 h was > 50 µM. In the case of `C#C[C@]1(O)CC[C@H]2[C@@H]3CCC4=CC(=O)CC[C@@H]4[C@H]3C(=C)C[C@@]21CC` [Etonogestrel], the CC50 at 24 h is reported as > 50 µM. For `CCN(CC)CCO[C@H]1CC[C@@]2(C)C(=CC[C@@H]3[C@@H]2CC[C@]2(C)C(=O)CC[C@@H]32)C1` [3beta-(2-Diethylaminoethoxy)androst-5-en-17-one hydrochloride], the CC50 at 24 h was > 50 µM. In the case of `Nc1ccc(S(=O)(=O)Nc2ccccc2)cc1` [Sulfabenz], the CC50 at 24 h is reported as > 50 µM. In the case of `Nc1ccn([C@@H]2O[C@H](CO)[C@@H](O)C2(F)F)c(=O)n1` [Gemcitabine hydrochloride], the CC50 at 24 h is reported as 0.153 µM. For `C=C(C)C(=O)Nc1ccc(Cl)c(Cl)c1` [Chloranocryl], the CC50 at 24 h was > 90 µM. With `CCOC(=O)C1OC1c1ccccc1` (stereo not shown) [Ethyl 3-phenylglycidate] the CC50 at 24 h was > 90 µM. In the case of `N=C(N)NCCC[C@H](NC(=O)[C@@H]1CCCN1C(=O)[C@@H]1CSSCCC(=O)N[C@@H](Cc2ccc(O)cc2)C(=O)N[C@@H](Cc2ccccc2)C(=O)N[C@@H](CCC(N)=O)C(=O)N[C@@H](CC(N)=O)C(=O)N1)C(=O)NCC(N)=O` [Desmopressin acetate], the CC50 at 24 h is reported as > 50 µM. With `c1cnc2c(n1)CCCC2` [5,6,7,8-Tetrahydroquinoxaline] the CC50 at 24 h was > 90 µM. With `COc1ccc2c3c1O[C@H]1[C@H](O)CC[C@H]4[C@@H](C2)N(C)CC[C@@]341` [Dihydroisocodeine] the CC50 at 24 h was > 90 µM. With `CC(C)N(CCC(C(N)=O)(c1ccccc1)c1ccccn1)C(C)C` (stereo not shown) [Disopyramide] the CC50 at 24 h was > 50 µM. In the case of `O=C(O)c1cccnc1C(=O)O` [Quinolinic acid], the CC50 at 24 h is reported as > 90 µM.

Same assay, conditions: rat, gh3-tre-luc cells, AC50 (uM) modified / 1000, Tox21_110001=Tox21_111908; viability, 1 nM T3 present, 24 h
With `CCCC(=O)OC(C(Cl)(Cl)Cl)P(=O)(OC)OC` (stereo not shown) [Butonate] the CC50 at 24 h was > 50 µM.

Same assay, conditions: rat, gh3-tre-luc cells, AC50 (uM) modified / 1000, Tox21_110001=Tox21_111947; viability, 1 nM T3 present, 24 h
For `CC(C)(C)OC(=O)c1ncn2c1[C@@H]1CCCN1C(=O)c1c(Br)cccc1-2` [Bretazenil], the CC50 at 24 h was > 50 µM.

Same assay, conditions: rat, gh3-tre-luc cells, AC50 (uM) modified / 1000, Tox21_110001=Tox21_200801; viability, 1 nM T3 present, 24 h
For `C=CCBr` [Allyl bromide], the CC50 at 24 h was > 100 µM.

Same assay, conditions: rat, gh3-tre-luc cells, AC50 (uM) modified / 1000, Tox21_110001=Tox21_201053; viability, 1 nM T3 present, 24 h
In the case of `CCOC(=O)CCl` [Ethyl chloroacetate], the CC50 at 24 h is reported as > 90 µM.

Same assay, conditions: rat, gh3-tre-luc cells, AC50 (uM) modified / 1000, Tox21_110001=Tox21_302181; viability, 1 nM T3 present, 24 h
For `OCCSSCCO` [2-Hydroxyethyl disulfide], the CC50 at 24 h was > 90 µM.

Same assay, conditions: rat, gh3-tre-luc cells, AC50 (uM) modified / 1000, Tox21_110001=Tox21_302231; viability, 1 nM T3 present, 24 h
For `O=c1c2ccccc2c(=O)c2c1cc(Cl)c1[nH]c3c([nH]c12)c(Cl)cc1c(=O)c2ccccc2c(=O)c13` [D&C Blue No. 9], the CC50 at 24 h was > 90 µM.
